{"source": "paper PMC8279409", "about": "“Novel Mixed NOP/Opioid Receptor Peptide Agonists” (Journal of Medicinal Chemistry, 2021)", "key": {"human mu receptor [1]": {"target": "T1, human mu receptor (Homo sapiens, UniProt P35372)", "T1 construct": "expressed in transfected cells; host or cells: CHO cells stably coexpressing the receptor and chimeric Gαqi5", "T1 sequence (P35372 whole entry)": "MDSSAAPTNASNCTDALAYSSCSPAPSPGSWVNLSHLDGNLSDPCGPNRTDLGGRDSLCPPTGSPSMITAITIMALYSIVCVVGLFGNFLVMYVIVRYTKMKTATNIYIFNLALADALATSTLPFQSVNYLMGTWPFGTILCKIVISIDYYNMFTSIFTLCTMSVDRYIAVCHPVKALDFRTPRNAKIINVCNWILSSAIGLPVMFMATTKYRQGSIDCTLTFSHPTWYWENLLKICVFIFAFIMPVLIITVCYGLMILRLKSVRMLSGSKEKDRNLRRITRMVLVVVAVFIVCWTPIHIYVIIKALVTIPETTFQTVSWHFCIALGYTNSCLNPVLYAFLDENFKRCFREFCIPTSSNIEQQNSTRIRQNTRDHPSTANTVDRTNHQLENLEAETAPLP", "assay": "Dynamic mass redistribution (DMR), mu receptor", "format": "cell-based", "settings": "for mu Emax ± S.E.M.: maximum picometer (pm) modification (peak), mean ± SEM of at least three experiments in duplicate", "method": "(§1) CHO cells stably expressing the human NOP and mu receptors were kindly provided by D.G. Lambert (University of Leicester, UK). Cells were cultured in DMEM/F-12 medium supplemented with 10% FBS, 100 U/mL penicillin, 100 μg/mL streptomycin, and 2 mmol/L L-glutamine. The medium was supplemented with 400 μg/mL G418 to maintain expression. Cells were cultured at 37 °C in 5% CO2 humidified air. For DMR measurements, the label-free EnSight Multimode Plate Reader (Perkin Elmer, MA, US) was used. Cells were seeded 15,000 cells/well in a volume of 30 μL onto fibronectin-coated 384-well DMR microplates and cultured for 20 h to obtain confluent monolayers. Cells were starved in the assay buffer (HBSS with 20 mM HEPES, 0.01% BSA fraction V) for 90 min before the test. Serial dilutions were made in the assay buffer. After reading the baseline, compounds were added in a volume of 10 μL; then, DMR changes were recorded for 60 min. Responses were described as picometer (pm) shifts over time (sec) following subtraction of values from vehicle-treated wells. Maximum picometer (pm) modification (peak) was used to generate concentration response curves. All the experiments were carried out at 37 °C.\n(§2) The pharmacological terminology adopted in this paper is consistent with IUPHAR recommendations.[59] All data are expressed as the mean ± standard error of the mean (SEM) of at least three experiments performed in duplicate. […] Concentration-response curves to agonists were fitted to the classical four-parameter logistic nonlinear regression model:\n(§3) Effect = Baseline + (Emax – Baseline)/(1 + 10^(LogEC50 – Log[compound]) × Hillslope). Curve fitting was performed using PRISM 6.0 (GraphPad Software Inc., San Diego)."}, "human mu receptor [2]": {"target": "T1, human mu receptor", "assay": "Calcium mobilization, mu opioid receptor", "format": "cell-based", "settings": "for Emax / activation at 10 µM: percent over the baseline fluorescence, SEM; for Emax: mean ± SEM of at least three experiments in duplicate; for mu pEC50 (CL95%): Table 1 series, CHO cells coexpressing human mu receptor and Gαqi5, Fluo-4 AM, 37 °C, mean of at least three experiments in duplicate, CL95% in brackets; for pEC50_mu: molecular formula strings CSV, repeats calcium mobilization values of Tables 1-3; for activation at 10 µM: read-out: mu effect at 10 μM (crc incomplete), Table 1 series, mean ± SEM"}, "human NOP receptor [3]": {"target": "T2, human NOP receptor (Homo sapiens, UniProt P41146)", "T2 construct": "expressed in transfected cells; host or cells: CHO cells stably coexpressing the receptor and chimeric Gαqi5", "T2 sequence (P41146 whole entry)": "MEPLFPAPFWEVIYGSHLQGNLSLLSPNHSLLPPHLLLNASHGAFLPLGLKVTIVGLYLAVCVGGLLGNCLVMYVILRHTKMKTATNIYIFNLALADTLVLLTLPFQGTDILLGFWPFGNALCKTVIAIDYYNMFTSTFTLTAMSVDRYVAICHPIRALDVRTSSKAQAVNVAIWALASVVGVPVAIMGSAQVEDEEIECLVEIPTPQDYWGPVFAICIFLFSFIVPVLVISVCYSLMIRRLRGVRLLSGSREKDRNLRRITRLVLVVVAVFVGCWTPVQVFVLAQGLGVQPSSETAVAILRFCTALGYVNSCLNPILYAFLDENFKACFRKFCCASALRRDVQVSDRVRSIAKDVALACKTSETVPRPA", "assay": "Calcium mobilization, NOP receptor", "format": "cell-based", "settings": "for NOP pEC50 (CL95%): CHO cells coexpressing human NOP and Gαqi5, Fluo-4 AM, 37 °C, mean of at least three experiments in duplicate, CL95% in brackets; for NOP Emax ± S.E.M. / Emax: mean ± SEM of at least three experiments in duplicate; for NOP/mu CR (concentration ratio): calcium mobilization, NOP versus mu; for Emax: read-out: NOP Emax ± S.E.M., Table 1 series, SEM", "method": "CHO cells stably coexpressing the human NOP or kappa or the mu receptor and the C-terminally modified Gαqi5 and CHO cells coexpressing the delta receptor and the GαqG66Di5 protein were generated and cultured as described previously.[45],[46] Cells were maintained in Dulbecco’s modified Eagle’s medium/nutrient mixture F-12 (DEMEM/F-12) supplemented with 10% FBS, 100 U/mL penicillin and 100 μg/mL streptomycin, 100 μg/mL hygromicin B, and 200 μg/mL G418 and cultured at 37 °C in 5% CO2 humidified air. Cells were seeded at a density of 50,000 cells/well into 96-well black, clear-bottom plates. The following day, the cells were incubated with Hanks’ balanced salt solution (HBSS) supplemented with 2.5 mM probenecid, 3 μM of the calcium-sensitive fluorescent dye Fluo-4 AM, and 0.01% pluronic acid for 30 min at 37 °C. After that time, the loading solution was aspirated and 100 μL/well of HBSS supplemented with 20 mM HEPES, 2.5 mM probenecid, and 500 μM brilliant black was added. Serial dilutions were carried out in HBSS/HEPES (20 mM) buffer (containing 0.02% BSA fraction V). After placing both plates (cell culture and master plate) into the fluorometric imaging plate reader FlexStation II (Molecular Devices, Sunnyvale, CA), fluorescence changes were measured. On-line additions were carried out in a volume of 50 μL/well. To facilitate drug diffusion into the wells, the present studies were performed at 37 °C. Maximum change in fluorescence, expressed as percent over the baseline fluorescence, was used to determine agonist response.\nas §2, §3"}, "human NOP receptor [4]": {"target": "T2, human NOP receptor", "assay": "Dynamic mass redistribution (DMR), NOP receptor", "format": "cell-based", "method": "as §1, with “All the experiments were carried out at 37 °C.” left out\nThe pharmacological terminology adopted in this paper is consistent with IUPHAR recommendations.[59] All data are expressed as the mean ± standard error of the mean (SEM) of at least three experiments performed in duplicate. […]"}, "[5]": {"tested_on": "NOP, mu, kappa, delta receptors", "settings": "functional studies with human recombinant receptors; cited from earlier work", "text": "Finally, the effects of [Dmt^1,5]N/OFQ(1-13)-NH2 at kappa and delta opioid receptors were investigated. […] Of note, the kappa potency of [Dmt^1,5]N/OFQ(1-13)-NH2 was similar to that shown at NOP and mu receptors. […] Moreover, similar results have b ..."}, "[6]": {"settings": "maximum change in fluorescence as percent over the baseline fluorescence"}}, "note": "Read-outs that look alike come from different tables or passages of the source. Where a SMILES comes first, the peptide text is derived from it. Where no end group is shown, it is not given here. [ ]: non-standard residue; d: D form. Dap = NC[C@H](N)C(=O)O", "data": [{"molecule": "CC(C)C[C@H](NC(=O)[C@H](CCCCN)NC(=O)[C@H](CCCNC(=N)N)NC(=O)[C@H](C)NC(=O)[C@H](CO)NC(=O)[C@H](CCCCN)NC(=O)[C@H](CCCNC(=N)N)NC(=O)[C@H](C)NC(=O)CNC(=O)[C@@H](NC(=O)[C@H](Cc1ccccc1)NC(=O)CNC(=O)CNC(=O)[C@@H](N)Cc1ccccc1)[C@@H](C)O)C(=O)N[C@@H](C)C(=O)N[C@@H](CC(N)=O)C(=O)N[C@@H](CCC(N)=O)C(=O)O", "note": "[Compound 36, N/OFQ]", "values": [{"measurement": "mu pEC50 (CL95%)", "setting": "human mu receptor [1]; DMR, CHO cells expressing human mu receptor, 60 min, 37 °C, mean of at least three experiments in duplicate, CL95% in brackets", "value": "inactive"}, {"measurement": "mu Emax ± S.E.M.", "setting": "human mu receptor [1]; DMR", "value": "inactive"}, {"measurement": "pEC50_mu", "setting": "human mu receptor [1]; molecular formula strings CSV, value of Compound_36 repeats the DMR result of Table 4", "value": "inactive"}]}, {"molecule": "C[C@@H](NC(=O)[C@@H](N)Cc1ccc(O)cc1)C(=O)N[C@@H](Cc1ccccc1)C(=O)NCC(=O)N[C@@H](Cc1ccc(O)cc1)C(=O)N1CCC[C@H]1C(=O)N[C@@H](CO)C(N)=O", "note": "[Compound 2, dermorphin, reference compound]", "values": [{"measurement": "Emax", "setting": "human mu receptor [2]; read-out: mu Emax ± S.E.M, Table 1 series", "value": "380 ± 15", "unit": "%"}, {"measurement": "Emax", "setting": "human mu receptor [2]; read-out: mu Emax ± S.E.M., Table 2 series", "value": "306 ± 23", "unit": "%"}, {"measurement": "Emax", "setting": "human mu receptor [2]; read-out: mu Emax ± S.E.M., Table 3 series", "value": "359 ± 18", "unit": "%"}, {"measurement": "NOP pEC50 (CL95%)", "setting": "human NOP receptor [3]; Table 1 series, FlexStation II", "value": "inactive"}, {"measurement": "NOP Emax ± S.E.M.", "setting": "human NOP receptor [3]; Table 1 series, maximum change in fluorescence as percent over the baseline fluorescence", "value": "inactive"}, {"measurement": "NOP pEC50 (CL95%)", "setting": "human NOP receptor [3]; Table 2 series", "value": "inactive"}, {"measurement": "NOP Emax ± S.E.M.", "setting": "human NOP receptor [3]; Table 2 series, percent over the baseline fluorescence", "value": "inactive"}, {"measurement": "NOP pEC50 (CL95%)", "setting": "human NOP receptor [3]; Table 3 series", "value": "inactive"}, {"measurement": "NOP Emax ± S.E.M.", "setting": "human NOP receptor [3]; Table 3 series, percent over the baseline fluorescence", "value": "inactive"}, {"measurement": "pEC50_NOP", "setting": "human NOP receptor [3]; molecular formula strings CSV, repeats calcium mobilization values of Tables 1-3", "value": "inactive"}, {"measurement": "NOP pEC50 (CL95%)", "setting": "human NOP receptor [4]; CHO cells expressing human NOP, label-free EnSight reader, 60 min, 37 °C, mean of at least three experiments in duplicate, CL95% in brackets", "value": "inactive"}, {"measurement": "NOP Emax ± S.E.M.", "setting": "human NOP receptor [4]; maximum picometer (pm) modification (peak), mean ± SEM of at least three experiments in duplicate", "value": "inactive"}, {"measurement": "mu Emax ± S.E.M.", "setting": "human mu receptor [1]; DMR, SEM", "value": "151 ± 16"}]}, {"molecule": "[Dmt^1]N/OFQ(1-13)-NH2", "values": [{"measurement": "rank order of potency", "setting": "[5]", "value": "NOP = mu > kappa > delta"}]}, {"molecule": "YGGFK(Ac)GARKSARK-NH2 [Compound 6, [Tyr^1,Lys(Ac)^5]N/OFQ(1-13)-NH2]", "values": [{"measurement": "mu pEC50 (CL95%)", "setting": "human mu receptor [2]", "value": "crc incomplete; 10 μM: 161 ± 31"}, {"measurement": "pEC50_mu", "setting": "human mu receptor [2]", "value": "crc incomplete"}, {"measurement": "activation at 10 µM", "setting": "human mu receptor [2]", "value": "161 ± 31", "unit": "%"}, {"measurement": "NOP pEC50 (CL95%)", "setting": "human NOP receptor [3]; Table 1 series, FlexStation II", "value": "8.55 (7.88–9.22)"}, {"measurement": "NOP/mu CR (concentration ratio)", "setting": "human NOP receptor [3]; Table 1 series", "value": 0.003}, {"measurement": "Emax", "setting": "human NOP receptor [3]; [6]", "value": "370 ± 16", "unit": "%"}]}, {"molecule": "C[C@H](NC(=O)CNC(=O)[C@H](CN)NC(=O)[C@H](Cc1ccccc1)NC(=O)CNC(=O)CNC(=O)[C@@H](N)Cc1ccc(O)cc1)C(=O)N[C@@H](CCCNC(=N)N)C(=O)N[C@@H](CCCCN)C(=O)N[C@@H](CO)C(=O)N[C@@H](C)C(=O)N[C@@H](CCCNC(=N)N)C(=O)N[C@@H](CCCCN)C(N)=O", "note": "[Compound 9, [Tyr^1,Dap^5]N/OFQ(1-13)-NH2] (H-YGGF[Dap]GARKSARK-NH2)", "values": [{"measurement": "mu pEC50 (CL95%)", "setting": "human mu receptor [2]", "value": "crc incomplete; 10 μM: 144 ± 44"}, {"measurement": "pEC50_mu", "setting": "human mu receptor [2]", "value": "crc incomplete"}, {"measurement": "activation at 10 µM", "setting": "human mu receptor [2]", "value": "144 ± 44", "unit": "%"}, {"measurement": "NOP pEC50 (CL95%)", "setting": "human NOP receptor [3]; Table 1 series, FlexStation II", "value": "7.20 (6.95–7.45)"}, {"measurement": "NOP/mu CR (concentration ratio)", "setting": "human NOP receptor [3]; Table 1 series", "value": 0.06}, {"measurement": "Emax", "setting": "human NOP receptor [3]; [6]", "value": "367 ± 9", "unit": "%"}]}]}
